The results in this text go back to publication PMC5681660, “Reduced hepatitis B and D viral entry using clinically applied drugs as novel inhibitors of the bile acid transporter NTCP” (Scientific Reports, 2017).

The target in this experiment is T1, human NTCP (Homo sapiens, UniProt Q14973).
T1 sequence (Q14973 1-349): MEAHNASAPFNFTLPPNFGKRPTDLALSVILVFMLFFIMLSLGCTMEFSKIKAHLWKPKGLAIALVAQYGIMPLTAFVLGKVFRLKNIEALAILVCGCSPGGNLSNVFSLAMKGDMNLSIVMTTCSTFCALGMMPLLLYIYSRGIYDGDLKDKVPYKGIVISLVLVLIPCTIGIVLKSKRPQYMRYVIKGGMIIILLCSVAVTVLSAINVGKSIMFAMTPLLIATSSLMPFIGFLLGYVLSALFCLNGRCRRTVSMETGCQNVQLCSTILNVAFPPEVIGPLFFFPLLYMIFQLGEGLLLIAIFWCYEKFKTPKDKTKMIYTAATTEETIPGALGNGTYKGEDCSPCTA
In words: Screening taurocholate uptake assay (96-well, [14C]taurocholate, 10 µM drug). Particulars: for B-score functional assay: screening taurocholate uptake, 10 µM drug.

Setting [1] is: ranking over the functional and the binding screening assay.
Where [2] appears, read: combined ranking of functional and binding screening assays.

Counter-ions that a name gives are not always drawn. Some results are limits rather than exact numbers.

`CCCCCC[C@H]1C(=O)O[C@H](C)[C@H](NC(=O)c2cccc(NC=O)c2O)C(=O)O[C@@H](C)[C@@H]1OC(=O)CC(C)C` [Antimycin A]: the B-score functional assay was -8.175. Moreover, the Ranking score under setting [1] came to 15.6525.
Compound `CN1C(C(=O)Nc2ccccn2)=C(O)c2sccc2S1(=O)=O` [Tenoxicam] displayed a B-score functional assay of 0.141. The Ranking score under setting [2] is recorded as 641.502.
Compound `CCCCN1CCCCC1C(=O)Nc1c(C)cccc1C` (stereo not drawn) [Bupivacaine hydrochloride] yielded a B-score functional assay of -1.136. This compound came in with a Ranking score under setting [1] of 231.991.
`N#Cc1ccc(C(c2ccc(C#N)cc2)n2cncn2)cc1` [Letrozole]: the B-score functional assay is 1.169. The Ranking score under setting [2] is listed as 610.1.
With `CC1(C)S[C@@H]2[C@H](NC(=O)[C@H](N)c3ccccc3)C(=O)N2[C@H]1C(=O)O` [Ampicillin trihydrate], the B-score functional assay is reported as -0.594. For the same compound, the Ranking score under setting [1] is given as 199.178.
As to `CC[N+](C)(CC)CCOC(=O)C1c2ccccc2Oc2ccccc21` [Methantheline bromide], the B-score functional assay is recorded as -0.025. Besides, the Ranking score under setting [2] is 536.517.
Consider `Nc1nc(NC2CC2)c2ncn([C@H]3C=C[C@@H](CO)C3)c2n1` [Abacavir Sulfate], for which the Ranking score under setting [2] turned out to be 1184.97. In addition, the B-score functional assay (B-score) worked out at 2.371.
`CC(=O)Oc1ccc(C(c2ccc(OC(C)=O)cc2)c2ccccn2)cc1` [Bisacodyl]: the B-score functional assay is listed as -3.114. Further, under setting [1], the Ranking score was found to be 63.
In turn, `NS(=O)(=O)c1cc(C2(O)NC(=O)c3ccccc32)ccc1Cl` (stereo not drawn) [Chlorthalidone] displayed a B-score functional assay of -1.121. The Ranking score under setting [2] turned out to be 532.184.
Take `NCc1ccccc1CC(=O)N[C@@H]1C(=O)N2C(C(=O)O)=C(CSc3nnnn3CC(=O)O)CS[C@H]12` [Ceforanide]: the Ranking score under setting [2] is 1237.77. The compound further yielded a B-score functional assay (B-score) of 3.778.
With `CN1CCCN=C1/C=C/c1cccc(O)c1.O=C(O)c1cc2ccccc2c(Cc2c(O)c(C(=O)O)cc3ccccc23)c1O` [Oxantel pamoate], the B-score functional assay is on record as -5.305. Also, the Ranking score under setting [1] was 130.111.
For the compound `c1ccc2c(c1)Nc1ccccc1S2` [Phenothiazine], the B-score functional assay was -0.168. For the same compound, the Ranking score under setting [2] was determined as 553.972.
`NC(=O)N/N=C/c1ccc([N+](=O)[O-])o1` [Nitrofural] yielded a B-score functional assay of 0.068. The Ranking score under setting [2] stood at 535.985.
The corresponding values for `CC(=O)[C@H]1CC[C@H]2[C@@H]3CCC4=CC(=O)CC[C@]4(C)[C@H]3CC[C@]12C` [Progesterone] are 0.628 and 609.007.
The corresponding values for `CCN(CC)CCOC(=O)C(c1ccccc1)C1CCCCC1` (stereo not drawn) [Drofenine hydrochloride] are -0.177 and 532.5.
As to `CN/C(=N/CCSCc1nc[nH]c1C)NC#N` [Cimetidine], the B-score functional assay is -0.365. This compound came in with a Ranking score under setting [1] of 269.583.
`CC(C)[N+](C)(CCOC(=O)C1c2ccccc2Oc2ccccc21)C(C)C` [Propantheline bromide] showed a B-score functional assay of -0.131. Also, the Ranking score under setting [2] is reported as 472.136.
The compound `CN1CCC(OC(c2ccccc2)c2ccccc2)CC1` [Diphenylpyraline hydrochloride] returned a B-score functional assay of -0.425. The compound further gave a Ranking score under setting [1] of 142.127.
Turning to `COc1ccc([C@@H]2CC(=O)c3c(O)cc(O[C@@H]4O[C@H](CO[C@@H]5O[C@@H](C)[C@H](O)[C@@H](O)[C@H]5O)[C@@H](O)[C@H](O)[C@H]4O)cc3O2)cc1O` [Hesperidin], the B-score functional assay is listed as 0.91. Also, the Ranking score under setting [2] is on record as 580.078.
The compound `OCCN1CCN(CCCN2c3ccccc3Sc3ccc(Cl)cc32)CC1` [Perphenazine] displayed a B-score functional assay of -0.257. The same compound displayed a Ranking score under setting [1] of 88.5268.
On to `CC(C)NC[C@H](O)COc1cccc2ccccc12` [(S)-propranolol hydrochloride], for which the B-score functional assay is -0.168. Moreover, the Ranking score under setting [2] turned out to be 599.166.
The corresponding values for `CC(=O)[C@@]1(O)CC[C@H]2[C@@H]3C[C@H](C)C4=CC(=O)C=C[C@]4(C)[C@@]3(F)[C@@H](O)C[C@@]21C` [Fluorometholone] are -0.26 and 616.409.
`CC=CC(=O)N(CC)c1ccccc1C` (mixture of isomers) [Crotamiton] had a B-score functional assay of -0.004. The compound further came in with a Ranking score under setting [1] of 248.379.
As for `C[C@]12CC[C@@H]3c4ccc(O)cc4CC[C@H]3[C@@H]1CC[C@@H]2O` [Estradiol-17 beta], the B-score functional assay is on record as -4.121. Under setting [1], this compound showed a Ranking score of 76.8375.
`CN1CCC(=C2c3ccccc3Sc3ccccc32)CC1` [Pimethixene maleate]: the B-score functional assay is on record as -0.824. Besides, the Ranking score under setting [2] stood at 556.525.
For the compound `NC(=O)OCCCc1ccccc1` [Phenprobamate], the B-score functional assay was 0.708. Also, under setting [2], the Ranking score turned out to be 613.275.
As to `CCOC(=O)OC(C)OC(=O)[C@@H]1N2C(=O)[C@@H](NC(=O)[C@H](N)c3ccccc3)[C@H]2SC1(C)C` (stereo partly drawn) [Bacampicillin hydrochloride], the B-score functional assay is -0.626. Besides, the Ranking score under setting [2] worked out at 500.635.
For `CC(NC(C)(C)C)C(=O)c1cccc(Cl)c1` (stereo not drawn) [Bupropion hydrochloride], in that order: 0.583 and 557.749.
The corresponding values for `NCCc1c[nH]cn1` [Histamine dihydrochloride] are 0.779 and 536.125.
`C[N+]1(C)CCOC(O)(c2ccc(-c3ccc(C4(O)C[N+](C)(C)CCO4)cc3)cc2)C1.[Br-].[Br-]` (stereo not drawn) [Hemicholinium bromide] returned a B-score functional assay of -3. Under setting [1], this compound came in with a Ranking score of 262.621.
Regarding `NC(=NCc1ccccc1)NC(=O)c1nc(Cl)c(N)nc1N` [Benzamil hydrochloride], the B-score functional assay is recorded as -0.089. In addition, the Ranking score under setting [2] is on record as 519.299.
`CC(C)NNC(=O)c1ccncc1.O=P(O)(O)O` [Iproniazide phosphate] showed a B-score functional assay of 0.714. Further, the Ranking score under setting [2] turned out to be 542.692.
In turn, `CCCOc1ccccc1-c1nc2nn[nH]c2c(=O)[nH]1` [Zaprinast] gave a B-score functional assay of -1.838. Also, the Ranking score under setting [1] turned out to be 188.481.
For `NC[C@H]1CC[C@H](C(=O)O)CC1` [Tranexamic acid], in that order: 0.375 and 255.588.
Colistin sulfate displayed a B-score functional assay of -0.917.
For `O=C1[C@H](CC[C@H](O)c2ccc(F)cc2)[C@@H](c2ccc(O)cc2)N1c1ccc(F)cc1` [ezetimibe, reference compound], the B-score functional assay is reported as -4.28. Where the note is “10 µM, both screening assays”, the “NTCP inhibition in the screen (in words)” value is listed as “confirmed NTCP inhibition”. Further, the “position among the hits of the screen (combined ranking of both screening assays)” value (1280 drugs at 10 µM, TC uptake and Myrcludex B binding screens combined) is on record as at most 150. The same compound returned a Ranking score under setting [1] of 30.4959.
`CC(C)(C)NCC(O)c1ccccc1Cl` (stereo not drawn) [Tulobuterol]: the Ranking score under setting [2] turned out to be 1214.72. Further, the B-score functional assay (B-score) was 2.873.
Compound `CC(=O)NC1CCSC1=O` (racemic) [N-Acetyl-DL-homocysteine Thiolactone] displayed a B-score functional assay of 0.096. For the same compound, the Ranking score under setting [2] is on record as 563.625.
Turning to `CNCC(O)c1ccc(O)c(O)c1` (stereo not drawn) [Racepinephrine HCl], the B-score functional assay is -0.581. Moreover, under setting [2], the Ranking score was found to be 629.338.
In turn, `CS(=O)(=O)OCCCCOS(C)(=O)=O` [Busulfan] showed a B-score functional assay of -1.026. Under setting [1], this compound showed a Ranking score of 269.796.
`C[C@]1(Cn2ccnn2)[C@H](C(=O)O)N2C(=O)C[C@H]2S1(=O)=O` [Tazobactam] showed a B-score functional assay of 2.889. The Ranking score under setting [2] is 613.948.
Regarding `O=C1c2c(O)cccc2Cc2cccc(O)c21` [Anthralin], the B-score functional assay is listed as 0.019. Also, under setting [1], the Ranking score was found to be 68.2788.
As to `CC(=O)N[C@@H](CC(C)C)C(=O)O` [N-Acetyl-L-leucine], the B-score functional assay is -1.591. Also, the Ranking score under setting [2] was 463.866.
With `Cc1cccc(C)c1NC(=O)C1CCCCN1C` (stereo not drawn) [Mepivacaine hydrochloride], the B-score functional assay is reported as -0.918. Also, under setting [1], the Ranking score was found to be 206.427.
`O=C(OCCOCCO)c1ccccc1Nc1cccc(C(F)(F)F)c1` [Etofenamate] had a B-score functional assay of 1.885. The same compound showed a Ranking score under setting [1] of 165.439.
On to `NS(=O)(=O)c1cc2c(cc1Cl)NCNS2(=O)=O` [Hydrochlorothiazide], for which the B-score functional assay came to 0.079. For the same compound, the Ranking score under setting [2] came to 515.124.
In turn, `O=C1CC2(CCCC2)CC(=O)N1CCCCN1CCN(c2ncccn2)CC1` [Buspirone hydrochloride] showed a B-score functional assay of -0.772. This compound also showed a Ranking score under setting [1] of 215.998.
The compound `O.O=C1C(O)=C(O)C(=O)C(O)=C1O` [Tetrahydroxy-1,4-quinone hydrate] gave a B-score functional assay of -0.017. Further, the Ranking score under setting [2] worked out at 603.838.
Take `CC(C)(C)NCC(O)c1ccc(O)c(CO)c1` (stereo not drawn) [Salbutamol]: the B-score functional assay is reported as 1.838. The same compound showed a Ranking score under setting [1] of 275.042.
